In patent US20260285817A1, “CRYSTALLINE FORMS OF A 1H-1,2,3-TRIAZOLE-4-CARBOXYLIC ACID COMPOUND” (CANTERO THERAPEUTICS, INC., priority 2023, published 2026):
Entries after “also recorded” stand apart in the source; their conditions may differ. Read-outs that look alike come from different tables or passages of the source.

Tests used:
[1] = Critical water activity study, competitive slurry in THF/H2O at rt, XRPD
Procedure: Critical water activity (aw) study was performed for mono-sodium salt Form A (monohydrate), Form E (hemihydrate) and Form D (anhydrate) to investigate the form relationship. It was conducted via competitive slurry in THF/H2O with a series of aw (0~1) at rt. Specifically, ~10 mg staring material was suspended in 0.4 mL THF/H2O (aw of 0, 0.2, 0.4, 0.6, 0.8 and 1.0) at rt. After equilibrium for 2 hrs, collect the filtrates to the HPLC vials containing Form A and Form D with equivalent mass ratio. After stirring magnetically at rt for 1~2 days, collect the solids for XRPD analysis.

[2] = Solubility in water at various temperatures; assay type: physicochemical; conditions: for Final Form: XRPD
Procedure: (§1) High Performance Liquid Chromatography (HPLC): HPLC of Agilent 1260 with DAD detector was employed to detect the purity and solubility, with the methods shown in Table 1.
Solubility in Water at various Temperature: Solubility test was conducted for Form A in water at various temperatures. Specifically, about 3~5 mg Form A sample was added to 1 mL water. After stirring at 750 rpm at desired temperatures (25/35/50/60/70° C.) for 1~2 hrs, solids were isolated for XRPD to check the crystal form and the supernatants were collected for a HPLC analysis to detect the solubility.

[3] = Dynamic vapor sorption (DVS) hygroscopicity of Form A; assay type: physicochemical
Procedure: In some embodiments, the crystalline form described herein is further characterized by a dynamic vapor sorption (DVS). In some embodiments, the DVS is recorded using a sample weight of a few milligrams (e.g., about 20 mg) on an ADVENTURE series DVS at 25° C. under nitrogen. In some embodiments, the sample is subjected to the cycle as follows: 1) ambient relative humidity (RH) to 90% RH at a rate of 10% RH and from 90% RH to 95% RH in a rate of 5% RH; 2) 95% RH to 90% RH at a rate of 5% RH and 90% RH to 0% RH at a rate of 10% RH; and 3) 0% RH to 90% RH at a rate of 10% RH and 90% RH to 95% RH in a rate of 5% RH.
Dynamic Vapor Sorption (DVS): Dynamic vapor sorption was performed with an ADVENTURE series DVS at 25° C. under nitrogen blow. Approximately 20 milligrams of material was used. Samples were analyzed using method below: • 1. Ambient relative humidity to 95% RH at 10% RH (5% from 90% RH to 95% RH) • 2. 95% RH to 0% RH at 10% RH (5% RH from 95% RH to 90% RH) • 3. 0% RH to 95% RH at 10% RH (5% RH from 90% RH to 95% RH)
To understand the hygroscopicity of Form A, dynamic vapor sorption (DVS) was employed to measure the mass change as a function of relative humidity at 25° C. Form A was equilibrated at ambient relative humidity before analysis.

[4] = Solubility in 20% EtOH in water and 20% DMAc in water at room temperature; assay type: physicochemical; conditions: organic solvent or mixture, 20~60 mins
Procedure: as §1
Solubility in Various Solvents: Solubility of Form A was also measured in 20% EtOH in water and 20% DMAc in water at room temperature (rt). Specifically, about 3 mg Form A sample was added to 0.6 mL solvent.

[5] = 24-hr pH solubility and form stability in six pH buffers at 25° C.; assay type: physicochemical; conditions: for solubility at 24 h: aqueous buffer
Procedure: as §1
After shaking at 100 rpm at 25° C. for 24 hrs, the suspensions were centrifuged. The solids were analyzed by XRPD for crystal form, and the filtrates of supernatants were analyzed by HPLC for solubility and by pH meter for pH value.

O=C([O-])c1nn[nH]c1Oc1ccc(-c2ccc(C3CC(F)(F)C3)cc2)cc1.[Na+]
relative form stability ([1]; THF/H2O, aw of 0~0.8, rt): more stable than monohydrate Form A and anhydrate Form D

O.O=C([O-])c1nn[nH]c1Oc1ccc(-c2ccc(C3CC(F)(F)C3)cc2)cc1.[Na+] [Form A, sodium 5-((4′-(3,3-difluorocyclobutyl)-[1,1′-biphenyl]-4-yl)oxy)-1H-1,2,3-triazole-4-carboxylate monohydrate]
solubility ([2]; 25~70° C., read-out: solubility as a function of temperature): 1100 to 2300 µg/mL | solubility ([2]; 25° C., 1~2 hrs, read-out: Solubility): 1100 µg/mL | Final Form ([2]; 25° C.): Forms A + C | solubility ([2]; 35° C., 1~2 hrs, read-out: Solubility): 1300 µg/mL | solubility ([2]; 50° C., 1~2 hrs, read-out: Solubility): 1940 µg/mL | solubility ([2]; 60° C., 1~2 hrs, read-out: Solubility): 1860 µg/mL | Final Form ([2]; 60° C.): Forms A + C | solubility ([2]; 70° C., 1~2 hrs, read-out: Solubility): 2320 µg/mL | form transformation in water ([2]; various temperatures): partial conversion to Form C | water uptake ([3]; 25° C./80% RH compared to starting point (60% RH)): negligible water uptake | weight gain, DVS cycle ([3]; 60% RH to 80% RH, 25° C.): less than 0.03% | weight loss, first dynamic vapor desorption cycle ([3]; 80% RH to 60% RH, 25° C.): less than 0.03% | hygroscopicity ([3]; DVS, 25° C., monohydrate): non-hygroscopic; also recorded: non-hygroscopicity | form stability under humidity ([3]; broad humidity range, DVS 25° C.): good form stability | water lost ([3]; relative humidity below 10% RH, 25° C.): ~ 0.6% | solubility ([4]; 20% DMAc in water): 3300 µg/mL | solubility ([4]; 20% EtOH in water): 1900 µg/mL | relative form stability ([1]; water, aw of 1.0, rt): more stable than Form D | solubility at 24 h ([5]; pH 7.0 buffer, 25° C., read-out: Solubility): 55 µg/mL | solubility at 24 h ([5]; pH 8.0 buffer, 25° C., read-out: Solubility): 404 µg/mL | solubility at 24 h ([5]; pH 10.0 buffer, 25° C., read-out: Solubility): 4830 µg/mL | solubility ([5]; pH 2.0/4.0/6.0, 25° C.): limited solubility | Final pH (measured) ([5]; pH 2.0 buffer, 25° C.): pH 2.5 | solubility ([5]; pH 2.0 buffer, 25° C.): <LOD | Form Change ([5]; pH 2.0 buffer, 25° C., XRPD of solids): Yes | Form Change ([5]; pH 2.0~7.0, 25° C.): new diffractive peaks | Final pH (measured) ([5]; pH 4.0 buffer, 25° C.): pH 4.4 | solubility ([5]; pH 4.0 buffer, 25° C.): <LOD | Form Change ([5]; pH 4.0 buffer, 25° C., XRPD of solids): Yes | Final pH (measured) ([5]; pH 6.0 buffer, 25° C.): pH 6.2 | solubility ([5]; pH 6.0 buffer, 25° C.): <LOD | Form Change ([5]; pH 6.0 buffer, 25° C., XRPD of solids): Yes | Final pH (measured) ([5]; pH 7.0 buffer, 25° C.): pH 7.1 | Form Change ([5]; pH 7.0 buffer, 25° C., XRPD of solids): Yes | Form Change ([5]; pH 8.0/10.0, 25° C.): no form change | Final pH (measured) ([5]; pH 8.0 buffer, 25° C.): pH 7.4 | Form Change ([5]; pH 8.0 buffer, 25° C., XRPD of solids): No | Final pH (measured) ([5]; pH 10.0 buffer, 25° C.): pH 8.4 | Form Change ([5]; pH 10.0 buffer, 25° C., XRPD of solids): No | solubility at 24 h ([5]; ph buffer, pH 2.0~10.0, 25° C., read-out: solubility as a function of pH): < 4800 µg/mL
